Data from US20230076527A1, “TREATMENT OF PAROXYSMAL NOCTURNAL HEMOGLOBINURIA” (Apellis Pharmaceuticals, Inc., priority 2020, published 2023).

Columns and labels:
[1] = tested on: PNH Type II + III RBCs; assay: PEGASUS pharmacodynamics: C3 loading and clone size of PNH red blood cells; assay type: in vivo, human; conditions: week 16 versus baseline
Excerpt: FIGS. 9B and 9C includes descriptive analysis of observed values, based only on those subjects who had both baseline and week 16 data.

[2] = tested on: patients with PNH; assay: PEGASUS quality of life assessments (LASA, EORTC QLQ-C30); assay type: in vivo, human
Method: QoL assessments were Linear Analog Scale Assessment (LASA) and the European Organisation for Research and Treatment of Cancer Quality of Life Questionnaire-Core 30 Scale (EORTC QLQ-C30) scores. Change from baseline (CFB) to week 16 was analyzed using a mixed model for repeated measures. The LASA consists of 3 sections asking respondents to rate their perceived level of functioning and contains specific domains for activity level, ability to carry out daily activities, and overall QoL. Each section of the LASA is scored from low of 0 to high of 100 and asks patients to rate different aspects of their life over the past week; section 1 asks patients to rate their energy level, section 2 their ability to do daily activities, section 3 their overall quality of life. Scores for the 3 individual components of the scale and the combined score were included in the analysis. The EORTC contains 30 questions comprising 5 functional scale scores and individual items; it asks patients to answer 28 questions on a scale of 1 (“not at all”) to 4 (“very much”) that generally focus on the past week of their life. An additional 2 questions are rated on a scale of 1 (“very poor”) to 7 (“excellent”) for overall health and quality of life over the past week.

[3] = tested on: patients with PNH; assay: PEGASUS 48-week efficacy results (open-label period); assay type: in vivo, human
Method: Day 1 to Week 16 was defined as the Randomized Controlled Period, over which endpoints were assessed. After completion of the Randomized Controlled Period (the end of Week 16), all subjects continue into a 32-week Open-Label Study Drug Period in which all subjects receive twice-weekly doses of Study Drug (1,080 mg). During this period, subjects return to the clinical site on Weeks 17, 18, 20, 22 and 24 and every 4 weeks, thereafter, until Week 48 for efficacy and safety assessments.

[4] = tested on: patients with PNH previously treated with eculizumab; assay: Matching-adjusted indirect comparison of pegcetacoplan (PEGASUS) versus ravulizumab (302 study); assay type: in vivo, human; conditions: PEGASUS Week 16 vs 302 study Week 26, after matching
Excerpt: Both studies share similar eligibility criteria. However, PEGASUS also required patients to have hemoglobin <10.5 g/dL and absolute reticulocyte count >1.0x the upper limit of normal; these criteria were not applicable in the 302 study. To adjust for cross-study differences in baseline characteristics, propensity score weighting was utilized to balance baseline demographic and clinical characteristics. Outcomes assessed included: transfusion avoidance, total number of units of packed red blood cells (PRBCs) transfused, hemoglobin stabilization, and change in Functional Assessment of Chronic Illness Therapy (FACIT)-Fatigue score. Outcomes were assessed from PEGASUS at Week 16 and from the 302 study at Week 26. Unadjusted mean and least squares mean change in FACIT-Fatigue score were compared for PEGASUS and the 302 study, respectively. Weighted Wald tests and 95% confidence intervals (CIs) were computed for comparisons of categorical and continuous outcomes (i.e., chi square and z tests, respectively).

[5] = tested on: patients with PNH; conditions: in vivo
Method: (§1) Pharmacokinetics and pharmacodynamics were also assessed, including change from baseline in percentage of PNH Type II + III RBCs at week 16, and change from baseline in percentage of PNH Type II + III RBCs opsonized with C3 at week 16. Incidence and severity of treatment-emergent adverse events (TEAEs), incidence of thromboembolic events, changes from baseline in laboratory parameters, and changes from baseline in electrocardiogram (ECG) parameters were also assessed.
(§2) The primary endpoint was assessed on ITT set (included all subjects who were randomized), and change from Baseline to Week 16 in Hb level was measured. […] Safety Analysis was conducted in the safety set (which included all subjects who were randomized and received at least 1 dose of monotherapy Study Drug).
(§3) Subjects were divided into various sets. The Run-in Set included all subjects who received at least one dose of APL-2. The Intent-to-Treat (ITT) Set included all subjects who were randomized. The analyses using this set was based upon the randomized treatment group allocated. The Safety Set included all subjects who were randomized and received at least 1 dose of monotherapy Study Drug. This set was used for safety analyses. The analyses using this set were based upon the actual treatment received. The Modified ITT (mITT) Set included all subjects in the ITT set who received at least one dose of monotherapy beyond their Week 4 after randomization in the Randomized Controlled Period. The analyses using this set were based upon the randomized treatment group allocated. […] Subjects were required to receive their randomized treatment to be included in the set and so analyses using this set were by default based upon the actual treatment group allocated. The Completer Set consisted of all subjects in the ITT set who completed the Week 16 efficacy assessment for the study. The analyses using this set were based upon the randomized treatment group allocated.

[6] = tested on: patients with PNH; assay: PEGASUS 48-week safety; conditions: 48-week study
[7] = tested on: patients with PNH; assay: PEGASUS safety, 16-week randomized controlled period
Method: as §1, §2, §3

[8] = change from baseline at week 16, ITT
[9] = change from baseline at week 16, ITT, listed as Pegcetacoplan
[10] = week 16, ITT, negative = improvement
[11] = 16-week randomized, controlled treatment period

Poly(oxy-1,2-ethanediyl), α-hydro-ω-hydroxy-, 15,15ʹ -diester with N-acetyl-L-isoleucyl-L-cysteinyl-L-valyl-1-methyl-L-tryptophyl-L-glutaminyl-L-α-aspartyl-L-tryptophylglycyl-L-alanyl-L-histidyl-L-arginyl-L-cysteinyl-L-threonyl-2-[2-(2-aminoethoxy)ethoxy]acetyl-N^6-carboxy-L-lysinamide cyclic (2-->12)-(disulfide) [pegcetacoplan]
C3 loading on Type III RBCs [1]: decreased
PNH clone size (Type II + III) [1]: increased
Appetite loss, Difference (95% CI) in LS mean, pegcetacoplan vs eculizumab [2, 8]: -8.0 (-23.2, 7.3)
Cognitive functioning, Difference (95% CI) in LS mean, pegcetacoplan vs eculizumab [2, 8]: 9.6 (-4.5, 23.6)
Constipation, Difference (95% CI) in LS mean, pegcetacoplan vs eculizumab [2, 8]: 1.8 (-15.7, 19.3)
Diarrhea, Difference (95% CI) in LS mean, pegcetacoplan vs eculizumab [2, 8]: -1.4 (-19.3, 16.5)
Dyspnea, Difference (95% CI) in LS mean, pegcetacoplan vs eculizumab [2, 8]: -14.6
Emotional functioning, Difference (95% CI) in LS mean, pegcetacoplan vs eculizumab [2, 8]: 4.1 (-11.6, 19.8)
Fatigue symptom scale, Difference (95% CI) in LS mean, pegcetacoplan vs eculizumab [2, 8]: -20.7
Financial difficulties, Difference (95% CI) in LS mean, pegcetacoplan vs eculizumab [2, 8]: -7.4 (-21.8, 7.0)
Global Health Status/QoL, Difference (95% CI) in LS mean, pegcetacoplan vs eculizumab [2, 8]: 18.6 (0.1, 37.1)
Insomnia, Difference (95% CI) in LS mean, pegcetacoplan vs eculizumab [2, 8]: 0.3 (-15.7, 16.3)
Nausea and vomiting, Difference (95% CI) in LS mean, pegcetacoplan vs eculizumab [2, 8]: -0.0 (-8.4, 8.4)
Pain, Difference (95% CI) in LS mean, pegcetacoplan vs eculizumab [2, 8]: -2.8 (-20.4, 14.9)
Physical functioning, Difference (95% CI) in LS mean, pegcetacoplan vs eculizumab [2, 8]: 12.9 (4.9, 20.9)
Role functioning, Difference (95% CI) in LS mean, pegcetacoplan vs eculizumab [2, 8]: 24.4 (8.8, 40.0)
Social functioning, Difference (95% CI) in LS mean, pegcetacoplan vs eculizumab [2, 8]: 11.3 (-2.4, 24.9)
LASA score, Difference (95% CI) in LS mean, pegcetacoplan vs eculizumab ([2]; change from baseline at week 16, ITT, censored for transfusion): 59.10
LASA score, Difference (95% CI) in LS mean, pegcetacoplan vs eculizumab ([2]; change from baseline at week 16, ITT, censored for transfusion, listed as Pegcetacoplan): 59.1 (16.9, 101.3)
Dyspnea, Difference (95% CI) in LS mean, pegcetacoplan vs eculizumab [2, 9]: -14.6 (-29.9, 0.8)
Fatigue symptom scale, Difference (95% CI) in LS mean, pegcetacoplan vs eculizumab [2, 9]: -20.7 (-35.3, -6.2)
EORTC QLQ-C30 Cognitive functioning, LS mean (SE) change from baseline ([2]; week 16, ITT): 5.8 (3.3)
EORTC QLQ-C30 Emotional functioning, LS mean (SE) change from baseline ([2]; week 16, ITT): 8.0 (3.4)
EORTC QLQ-C30 Global Health Status/QoL, LS mean (SE) change from baseline ([2]; week 16, ITT): 15.9 (3.6)
EORTC QLQ-C30 Physical functioning, LS mean (SE) change from baseline ([2]; week 16, ITT): 16.9 (2.1)
EORTC QLQ-C30 Role functioning, LS mean (SE) change from baseline ([2]; week 16, ITT): 15.4 (3.9)
EORTC QLQ-C30 Social functioning, LS mean (SE) change from baseline ([2]; week 16, ITT): 15.1 (2.9)
LASA score, LS mean (SE) change from baseline ([2]; week 16, ITT, censored for transfusion): 49.4 (10.2)
EORTC QLQ-C30 Appetite loss, LS mean (SE) change from baseline [2, 10]: -3.8 (3.4)
EORTC QLQ-C30 Constipation, LS mean (SE) change from baseline [2, 10]: 3.0 (3.2)
EORTC QLQ-C30 Diarrhea, LS mean (SE) change from baseline [2, 10]: 0.3 (3.7)
EORTC QLQ-C30 Dyspnea, LS mean (SE) change from baseline [2, 10]: -20.1 (3.5)
EORTC QLQ-C30 Fatigue symptom scale, LS mean (SE) change from baseline [2, 10]: -22.9 (3.3)
EORTC QLQ-C30 Financial difficulties, LS mean (SE) change from baseline [2, 10]: -6.8 (3.9)
EORTC QLQ-C30 Insomnia, LS mean (SE) change from baseline [2, 10]: -9.2 (4.0)
EORTC QLQ-C30 Nausea and vomiting, LS mean (SE) change from baseline [2, 10]: -0.3 (1.6)
EORTC QLQ-C30 Pain, LS mean (SE) change from baseline [2, 10]: -0.7 (4.3)
hemoglobin, mean improvement from baseline ([3]; Week 48): 2.7 g/dL
patients who remained transfusion free ([3]; throughout the 48-week study): 73%
hemoglobin, mean increase from baseline as stated in Example 3 ([3]; week 16): 2.7 g/dL
comparative effectiveness versus ravulizumab (MAIC, anchored on eculizumab) [4]: improvement in transfusion avoidance, hemoglobin stabilization, and fatigue, and a reduction in the total number of units of PRBCs transfused
All Infections [5]: 12 (29.3) n(%)
Sepsis [5]: 0 n(%)
cases of meningitis [6]: No cases
diarrhea [6]: 21%
discontinuations due to hemolysis [6]: five
hemolysis (adverse event) [6]: 24%
injection site reactions [6]: 36%
patients who experienced a serious adverse event ([6]; 24 of 80 pegcetacoplan monotherapy-treated patients): 30%
deaths ([6]; due to COVID-19, unrelated to study treatment): One death
SAEs assessed to be possibly related to study treatment ([6]; five of the SAEs): 6%
patients who discontinued due to adverse events ([6]; twelve out of 80 patients): 15%
LDH increase in subjects discontinuing due to hemolysis ([7]; 3 subjects of the pegcetacoplan group): 3-11 × ULN
hemolysis (adverse event) ([7]; 16-week period, four patients pegcetacoplan, nine patients eculizumab): 9.8%
patients who experienced a serious adverse event ([7]; 16-week period, seven of 41 pegcetacoplan, 6 of 39 eculizumab): 17.1%
Abdominal Pain (adverse event) ([7]; 16-week randomized period): 5 (12.2) n(%)
Any TEAE ([7]; 16-week randomized period): 36 (87.8) n(%)
Back Pain (adverse event) ([7]; 16-week randomized period): 3 (7.3) n(%)
Diarrhea (adverse event) ([7]; 16-week randomized period): 9 (22.0) n(%)
Discontinuations due to AE ([7]; 16-week randomized period): 3 (7.3) n(%)
Dizziness (adverse event) ([7]; 16-week randomized period): 1 (2.4) n(%)
Headache (adverse event) ([7]; 16-week randomized period): 3 (7.3) n(%)
Meningitis ([7]; 16-week randomized period): 0 n(%)
Serious AE ([7]; 16-week randomized period): 7 (17.1) n(%)
cases of meningitis ([7]; 16-week randomized period): No cases
deaths ([7]; 16-week randomized period): no deaths
fatigue (adverse event) ([7]; 16-week randomized period): 2 (4.9) n(%)
hemolysis (adverse event) ([7]; 16-week randomized period): 4 (9.8) n(%)
injection site reactions ([7]; 16-week randomized period): 15 (35.6) n(%)
tolerability ([7]; 16-week randomized period): generally well tolerated
diarrhea [7, 11]: 22.0%
fatigue (adverse event) [7, 11]: 4.9%
headache [7, 11]: 7.3%
injection site reactions [7, 11]: 36.6%
Adverse Events as primary reason for withdrawal from study treatment (all reported as hemolysis) ([7]; through week 16): 3 (7.3) n (%)
